{
  "source": "patent US20260256741A1",
  "about": "“ANTICANCER MALEIMIDE DERIVATIVES FOR USE WITH IMMUNE CHECKPOINT BLOCKADE” (BROWN UNIVERSITY, priority 2022, published 2026)",
  "key": {"[1]": {"system": "CRC (HCT-116, HT-29) and TALL-104 cells", "assay": "Pyroptotic events in 40x co-culture images", "type": "cell-based, human", "procedure": "5000 HT-29 GFP+ or HCT 116 GFP+ cells were plated per well in a clear-bottom, black-walled 96-well tissue culture plate and were allowed to adhere overnight. Cells were subsequently treated with DMSO, 5 μM elraglusib, and/or 5000 TALL-104 or NK-92 cells (for an effector-to-tumor ratio of 1:1) for 48 hours. Nine images were taken per well at 10× magnification using a Molecular Devices ImageXpress® Confocal HT.ai High-Content Imaging System and quantified for the number of GFP+ objects using the MetaXpress (RRID: SCR_016654) software (Molecular Devices, San Jose, CA, USA). 40× Images were also taken at 24 hours for representative images of cellular morphology changes. Statistical analysis was done using GraphPad Prism 9 (RRID: SCR_002798)."}, "[2]": {"system": "refractory solid tumors of multiple tissue origins", "assay": "Phase 1 clinical trial of elraglusib (NCT03678883), PFS and OS", "type": "in vivo, human", "conditions": "patients analysed, n=19, multiple tumor types", "procedure": "Archival tumor specimens and peripheral blood samples were collected from patients enrolled in the Phase I study of Elraglusib (9-ING-41), a small molecule selective glycogen synthase kinase-3 beta (GSK-3b) inhibitor, as monotherapy or combined with cytotoxic regimens in patients with relapsed or refractory hematologic malignancies or solid tumors (Clinicaltrials.gov NCT03678883) who received treatment at the Lifespan Cancer Institute (Providence, RI, USA). The study was conducted in accordance with the Declaration of Helsinki and the International Conference on Harmonization Good Clinical Practice guidelines. The study protocol was approved by the Institutional Review Board (IRB) of Rhode Island Hospital under protocol number 1324888-120. The patients also participated in a Lifespan Cancer Institute research protocol designed to investigate molecular and genetic features of tumors and mechanisms of resistance (Rhode Island Hospital IRB protocol number 449060-38). All patients provided written informed consent."}},
  "data": [
    {"smiles": "Cn1cc(C2=C(c3coc4ccc(F)cc34)C(=O)NC2=O)c2cc3c(cc21)OCO3", "note": "[elraglusib, 3-(5-fluorobenzofuran-3-yl)-4-(5-methyl-5H-[1,3]dioxolo[4,5-f]indol-7-yl)-1H-pyrrole-2,5-dione]", "values": [
      {"measurement": "pyroptotic events", "setting": "[1]; co-culture of CRC and TALL-104 cells with 5 μM elraglusib", "value": "significant increase in pyroptotic events"},
      {"measurement": "pyroptotic events", "setting": "[1]; drug-only condition, no immune cells", "value": "did not observe any pyroptotic events"},
      {"measurement": "median OS", "setting": "[2]", "value": 101, "unit": "days"},
      {"measurement": "median PFS", "setting": "[2]", "value": 75.9, "unit": "days"}
    ]}
  ]
}
